A short description of the data set: Solubility of metronidazole in water. The class given is physicochemical. The note with it: water/propylene glycol mixtures said to give higher solubilities (values not given). The text has this:
Without wishing to be bound by any particular theory, it is possible that the stabilizing effect according to the invention is at least partly due to the fact that a mixture of water and propylene glycol allows a very good solubilization of metronidazole, in particular when the water and the propylene glycol are present in the abovementioned advantageous ranges, whereas a lower solubilization is obtained when the propylene glycol is introduced after the dissolution of the metronidazole in water, even when the propylene glycol is post-introduced in large quantities as in the method of U.S. Pat. No. 4,837,378.

Consider `Cc1ncc([N+](=O)[O-])n1CCO` [Metronidazole, 1-(2-hydroxyethyl)-2-methyl-5-nitroimidazole], for which the solubility in water is given as roughly 0.78%.

Values taken from US20090215849A1, “High stability aqueous gels comprising metronidazole and methods for the preparation thereof” (GALDERMA S.A., priority 2005, published 2009).
